The subject of test [1] is bovine papilloma virus type I (BPV-1)-transformed HEF (HEF-BPV). In words: Inhibition of bovine papilloma virus, BPV-infected hamster embryo fibroblasts (HEF) cell proliferation assay. Format: cell-based. Particulars: HEF-BPV, 72 hr, 37° C., pH 6.8. As to the method:
Briefly, hamster embryo fibroblasts and bovine papilloma virus type I (BPV-1)-transformed HEF (HEF-BPV) were grown in Eagle's basal medium. […] and HEF cells were seeded in 96-well plates at a density of 0.5×10^6 cells per plate in DMEM cell culture medium containing 10% fetal calf serum at pH 6.8. The plates were then incubated in the presence of 5% CO2 in 100% humidity at 37° C. After 6 hr, the cell culture medium in the plates was exchanged with fresh DMEM cell culture medium containing test compounds at a series of concentrations. The plates were incubated at 37° C. for additional 72 hr. Cells in the plates were then washed with PBS, fixed with 3% formaldehyde solution containing 0.9% NaCl for 1 min, washed by water for 10 sec, and dried overnight. For detection, the plates were stained with crystal violet solution for 5 min at room temperature, washed 5 times with water, and dried at room temperature overnight. After adding ethanol/acetic acid (99:1, v/v, […]) to each well, the plates were measured at 595 nm using an ELISA reader.

Test [2] concerns the target T1, B. cereus PC-PLC (phosphatidylcholine-specific phospholipase C) (Bacillus cereus, UniProt P09598).
T1 construct: purchased Invitrogen
Description: Inhibition of phosphatidylcholine-specific phospholipase C (Amplex Red PC-PLC assay kit). Particulars: 30 min at 37° C., 0.2 U/mL PC-PLC solution, triplicate. Format: biochemical. As to the method: The inhibitory activities of optically active potassium salts of (+)- and (−)-O-exo/C-exo-tricyclo [5.2.1.0^2,6]-dec-9-yl-xanthic acid 1A ((+)- and (−)-enantiomers 1A) against phosphatidylcholine-specific phospholipase C were evaluated, together with D609 and potassium salt of racemic O-exo/C-exo xanthic acid 1A (racemic 1A), using Amplex Red phosphatidylcholine-specific phospholipase C(PC-PLC) assay kit, which was obtained from Invitrogen (Calsbad, Calif.). D609 was obtained from Sigma Aldrich.
An Amplex Red stock solution (˜20 mM), a working reaction buffer, and a horseradish peroxidase stock solution (200 U/mL), a H2O2 working solution (20 mM), a choline oxidate stock solution (20 U/mL), an alkaline phosphatase stock solution (400 U/mL), and a B. cereus PC-PLC stock solution (10 U/mL) were prepared according to the instruction of the assay kit. The stock solution (100 mg/mL) for each test compound was also prepared by dissolving the compound in water 2 hr prior to the start of the experiment.
A working Amplex Red/HRP/lecithin solution was prepared by adding 200 μL of Amplex Red reagent stock solution, 100 μL of HRP stock solution, 200 μL of alkaline phosphatase stock solution, 100 μL of choline oxidase stock solution, and 78 μL of the lecithin solution to […] of the working reaction buffer. PC-PLC solution (0.2 U/mL) was prepared by diluting the PC-PLC stock solution with the working reaction buffer to the desired concentration.
The test compound (25 μL) at a serious of concentrations was pipetted into a 96 well plate. For uninhibited PC-PLC controls and non-PC-PLC controls, 25 μL of water was added. After the addition of 50 μL of the Amplex Red/HRP/lecithin working solution, the reaction was initiated by adding 25 μL of PC-PLC solution to each well. […] After incubated for 30 min at 37° C., the reactions were measured with a fluorescence microplate reader using excitation at 550 nm and emission detection at 590 nm. The fluorescent data obtained were corrected for background fluorescence by subtracting the values obtained from the non-PC-PLC controls.

In test [3] the test system is actin specific RNA. In words: Short-term study, effect on control RNA expression. In kind it is cell-based. Particulars: 0-32 μg/mL, 72 hrs. How it is done:
(§1) Effect on HPV-31 specific DNA and RNA. HPV-31 infected cells (3×10^6) were dispensed into 14.5 cm dishes containing fresh E culture medium and 1×10^6 mitomycin C-treated J2 3T3 fibroblast feeders. After 6 hrs, fresh medium containing 0.85 g/L NaHCO3 and a test compound at a series of concentrations (0, 0.5, 1, 2, 4, 8, 16, and 32 μg/mL) were added. All samples were tested in duplicates at each concentration. After incubation at 37° C. for 72 hrs, the feeder cells were removed with 4 mM EDTA, and DNA and RNA was then isolated. The isolated DNA and RNA were analyzed in Southern and Northern Blot gels for HPV-31 specific sequences. Human A431 epithelial cancer cells were used as HPV-uninfected negative control. X-ray films were scanned and optical densities of HPV-31 specific DNA and major mRNA species were integrated.
(§2) Dose response curves were established by plotting integrated values against the concentrations of the test compound.

Test [4] relates to HPV-31 specific RNA in HPV-31-infected CIN612 9E keratinocytes. In words: Short-term study, inhibition of HPV-31 specific RNA expression (Northern Blot). Format: cell-based, human papilloma virus. Particulars: Human papillomavirus, Keratinocyte; 72 hrs, 37° C. How it is done:
The inhibitory activities of optically active (−)-enantiomer 1A against human papilloma virus were evaluated using HPV-31-infected CIN612 9E keratinocytes (Meyers et al., Science 1992, 257, 971-973).
as §1, §2

The structures appear in SMILES notation. ≈ marks a conversion by molar mass, not a printed value.

T1 sequence (P09598 39-283 limits assumed): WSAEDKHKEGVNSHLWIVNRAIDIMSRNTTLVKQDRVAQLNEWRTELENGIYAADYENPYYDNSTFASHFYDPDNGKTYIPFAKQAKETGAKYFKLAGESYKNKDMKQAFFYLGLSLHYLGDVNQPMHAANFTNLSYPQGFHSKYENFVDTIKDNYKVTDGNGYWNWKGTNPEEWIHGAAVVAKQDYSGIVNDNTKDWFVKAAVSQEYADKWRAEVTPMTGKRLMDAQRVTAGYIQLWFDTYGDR

For the molecule `S=C(S)OC1CC2CC1C1CCCC21` (single isomer, unassigned; (-)) [(−)-Enantiomer 1A, (−)-O-exo/C-exo-tricyclo[5.2.1.0^2,6]-dec-9-yl-xanthic acid], the IC50 is 11.07 ± 0.18 µg/mL (≈ 48.5 µM) in test [1], 15.9 µM in test [2] and 10.7 µg/mL (≈ 46.9 µM) in test [4]. Further, in test [3], the “expression of the control RNA (actin specific RNA)” value is given as “only affected at the highest concentration of 32 μg/mL”.

The IC50 is the midpoint of a concentration-inhibition curve.

Source of the values: patent US20100240746A1, “STEREOISOMERS OF TRICYCLODECAN-9-YL-XANTHOGENATE” (LUMAVITA AG, priority 2007, published 2010).
